# B1: Metallo-beta-lactamase (Pseudomonas stutzeri), D5JGF6 (protein)
# chain: MRTHFTALLLLFSLSSLANDEVPELRIEKVKENIFLHTSYSRVNGFGLVSSNGLVVIDKGNAFIVDTPWSDRDTETLVHWIRKNGYELLGSVSTHWHEDRTAGIKWLNDQSISTYATTSTNHLLKENKKEPAKYTLKGNESTLVDGLIEVFYPGGGHTIDNVVVWLPKSKILFGGCFVRSLDSEGLGYTGEAHIDQWSRSAQNALSRYSEAQIVIPGHGKIGDIALLKHTKSLAETASNKSIQPNANASAD
# Columns and labels:
# Stutzerimonas stutzeri [1] = experiment: Antimicrobial activity against Pseudomonas stutzeri clinical isolate expressing beta-lactamase DIM-1 by agar dilution method in presence of beta-lactam inhibitor clavulanic acid; type: functional
# Escherichia coli [2] = experiment: Antimicrobial activity against Escherichia coli TOP10 harboring beta-lactamase DIM-1 by agar dilution method; type: functional
# Escherichia coli [3] = experiment: Antimicrobial activity against Escherichia coli TOP10 harboring beta-lactamase DIM-1 by agar dilution method in presence of beta-lactam inhibitor clavulanic acid; type: functional
# Escherichia coli [4] = experiment: Antimicrobial activity against Escherichia coli TOP10 by agar dilution method; type: functional
# Escherichia coli [5] = experiment: Antimicrobial activity against Escherichia coli TOP10 by agar dilution method in presence of beta-lactam inhibitor clavulanic acid; type: functional
# Stutzerimonas stutzeri [6] = experiment: Antimicrobial activity against Pseudomonas stutzeri clinical isolate expressing beta-lactamase DIM-1 by agar dilution method; type: functional
# [7] = target: T1, Metallo-beta-lactamase (Pseudomonas stutzeri) (UniProt D5JGF6); experiment: Ratio of Kcat to Km for Pseudomonas stutzeri beta-lactamase DIM-1by UV-spectrophotometry; parameters: unit not given here; settings: Stutzerimonas stutzeri
# T1 sequence (whole entry): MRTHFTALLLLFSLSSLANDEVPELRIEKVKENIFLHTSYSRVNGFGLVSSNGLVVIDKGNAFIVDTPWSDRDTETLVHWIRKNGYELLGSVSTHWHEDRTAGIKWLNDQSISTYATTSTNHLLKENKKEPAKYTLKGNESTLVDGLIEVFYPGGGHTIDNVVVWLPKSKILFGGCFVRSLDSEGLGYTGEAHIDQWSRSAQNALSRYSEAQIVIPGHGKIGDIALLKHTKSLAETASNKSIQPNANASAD
# Stutzerimonas stutzeri [8] = experiment: Antimicrobial activity against Pseudomonas stutzeri clinical isolate expressing beta-lactamase DIM-1 by agar dilution method in presence of beta-lactam inhibitor Tazobactam; type: functional
# Escherichia coli [9] = experiment: Antimicrobial activity against Escherichia coli TOP10 harboring beta-lactamase DIM-1 by agar dilution method in presence of beta-lactam inhibitor Tazobactam; type: functional
# Escherichia coli [10] = experiment: Antimicrobial activity against Escherichia coli TOP10 by agar dilution method in presence of beta-lactam inhibitor Tazobactam; type: functional
# [11] = substrate: CC(=O)OCC1=C(C(=O)O)N2C(=O)[C@@H](NC(=O)Cc3cccs3)[C@H]2SC1; experiment: (§1) Activity of Pseudomonas stutzeri beta-lactamase DIM-1 by UV-spectrophotometry; settings: Stutzerimonas stutzeri
# [12] = substrate: CC(C)(O/N=C(\C(=O)N[C@@H]1C(=O)N2C(C(=O)[O-])=C(C[n+]3ccccc3)CS[C@H]12)c1csc(N)n1)C(=O)O; experiment: as §1; settings: Stutzerimonas stutzeri
# [13] = substrate: CC1(C)S[C@@H]2[C@H](NC(=O)Cc3ccccc3)C(=O)N2[C@H]1C(=O)O; experiment: as §1; settings: Stutzerimonas stutzeri
# [14] = substrate: CC1(C)S[C@@H]2[C@H](NC(=O)[C@H](C(=O)O)c3ccsc3)C(=O)N2[C@H]1C(=O)O; experiment: as §1; settings: Stutzerimonas stutzeri
# [15] = substrate: CC1(C)S[C@@H]2[C@H](NC(=O)[C@H](N)c3ccccc3)C(=O)N2[C@H]1C(=O)O; experiment: as §1; settings: Stutzerimonas stutzeri
# [16] = substrate: CO/N=C(\C(=O)N[C@@H]1C(=O)N2C(C(=O)O)=C(COC(C)=O)CS[C@H]12)c1csc(N)n1; experiment: as §1; settings: Stutzerimonas stutzeri
# [17] = substrate: CO/N=C(\C(=O)N[C@@H]1C(=O)N2C(C(=O)[O-])=C(C[N+]3(C)CCCC3)CS[C@H]12)c1csc(N)n1; experiment: as §1; settings: Stutzerimonas stutzeri
# [18] = substrate: CO[C@@]1(NC(=O)Cc2cccs2)C(=O)N2C(C(=O)O)=C(COC(N)=O)CS[C@@H]21; experiment: as §1; settings: Stutzerimonas stutzeri
# [19] = substrate: C[C@@H](O)[C@H]1C(=O)N2C(C(=O)O)=C(SCCNC=N)C[C@H]12; experiment: as §1; settings: Stutzerimonas stutzeri
# [20] = substrate: C[C@@H](O)[C@H]1C(=O)N2C(C(=O)O)=C(S[C@@H]3CN[C@H](C(=O)N(C)C)C3)[C@H](C)[C@H]12; experiment: as §1; settings: Stutzerimonas stutzeri
# [21] = substrate: C[C@H]1[C@H](NC(=O)/C(=N\OC(C)(C)C(=O)O)c2csc(N)n2)C(=O)N1S(=O)(=O)O; experiment: as §1; settings: Stutzerimonas stutzeri
molecule,measurement,setting,value
CC1(C)S[C@@H]2[C@H](NC(=O)[C@H](N)c3ccc(O)cc3)C(=O)N2[C@H]1C(=O)O [AMOXICILLIN],MIC,Stutzerimonas stutzeri [1],> 512 µg/mL
same,MIC,Escherichia coli [2],> 512 µg/mL
same,MIC,Escherichia coli [3],> 512 µg/mL
same,MIC,Escherichia coli [4],4 µg/mL
same,MIC,Escherichia coli [5],4 µg/mL
same,MIC,Stutzerimonas stutzeri [6],> 512 µg/mL
CC(=O)OCC1=C(C(=O)O)N2C(=O)[C@@H](NC(=O)Cc3cccs3)[C@H]2SC1,Ratio,[7],5000
C[C@@H](O)[C@H]1C(=O)N2C(C(=O)O)=C(SCCNC=N)C[C@H]12 [IMIPENEM ANHYDROUS],MIC,Escherichia coli [2],2 µg/mL
same,Ratio,[7],440
same,MIC,Stutzerimonas stutzeri [6],64 µg/mL
CO[C@@]1(NC(=O)Cc2cccs2)C(=O)N2C(C(=O)O)=C(COC(N)=O)CS[C@@H]21 [CEFOXITIN],MIC,Escherichia coli [2],512 µg/mL
same,MIC,Escherichia coli [4],4 µg/mL
same,Ratio,[7],400
same,MIC,Stutzerimonas stutzeri [6],512 µg/mL
C[C@@H](O)[C@H]1C(=O)N2C(C(=O)O)=C(S[C@@H]3CN[C@H](C(=O)N(C)C)C3)[C@H](C)[C@H]12,Ratio,[7],200
C[C@H]1[C@H](NC(=O)/C(=N\OC(C)(C)C(=O)O)c2csc(N)n2)C(=O)N1S(=O)(=O)O [AZTREONAM],MIC,Escherichia coli [2],0.25 µg/mL
CC(C)(O/N=C(\C(=O)N[C@@H]1C(=O)N2C(C(=O)[O-])=C(C[n+]3ccccc3)CS[C@H]12)c1csc(N)n1)C(=O)O [CEFTAZIDIME],MIC,Escherichia coli [2],256 µg/mL
same,MIC,Escherichia coli [4],0.06 µg/mL
same,Ratio,[7],60
same,MIC,Stutzerimonas stutzeri [6],8 µg/mL
CO/N=C(\C(=O)N[C@@H]1C(=O)N2C(C(=O)[O-])=C(C[N+]3(C)CCCC3)CS[C@H]12)c1csc(N)n1,MIC,Escherichia coli [2],1 µg/mL
CC1(C)S[C@@H]2[C@H](NC(=O)[C@H](N)c3ccccc3)C(=O)N2[C@H]1C(=O)O,Ratio,[7],180
CC1(C)S[C@@H]2[C@H](NC(=O)[C@H](C(=O)O)c3ccsc3)C(=O)N2[C@H]1C(=O)O [TICARCILLIN],MIC,Stutzerimonas stutzeri [1],> 512 µg/mL
same,MIC,Escherichia coli [2],> 512 µg/mL
same,MIC,Escherichia coli [3],> 512 µg/mL
same,MIC,Escherichia coli [4],4 µg/mL
same,MIC,Escherichia coli [5],4 µg/mL
same,Ratio,[7],15000
same,MIC,Stutzerimonas stutzeri [6],> 512 µg/mL
CO/N=C(\C(=O)N[C@@H]1C(=O)N2C(C(=O)O)=C(COC(C)=O)CS[C@H]12)c1csc(N)n1 [CEFOTAXIME],MIC,Escherichia coli [2],256 µg/mL
same,MIC,Escherichia coli [4],0.12 µg/mL
same,Ratio,[7],3000
same,MIC,Stutzerimonas stutzeri [6],512 µg/mL
CC1(C)S[C@@H]2[C@H](NC(=O)Cc3ccccc3)C(=O)N2[C@H]1C(=O)O,Ratio,[7],2800
CCN1CCN(C(=O)N[C@@H](C(=O)N[C@@H]2C(=O)N3[C@@H]2SC(C)(C)[C@@H]3C(=O)O)c2ccccc2)C(=O)C1=O [PIPERACILLIN],MIC,Escherichia coli [2],> 512 µg/mL
same,MIC,Escherichia coli [4],1 µg/mL
same,MIC,Stutzerimonas stutzeri [6],> 512 µg/mL
same,MIC,Stutzerimonas stutzeri [8],512 µg/mL
same,MIC,Escherichia coli [9],512 µg/mL
same,MIC,Escherichia coli [10],1 µg/mL
B1,Km,[11],6 µM
same,kcat,[11],30 s⁻¹
same,Km,[12],50 µM
same,kcat,[12],3 s⁻¹
same,Km,[13],90 µM
same,kcat,[13],250 s⁻¹
same,Km,[14],80 µM
same,kcat,[14],250 s⁻¹
same,Km,[15],110 µM
same,kcat,[15],20 s⁻¹
same,Km,[16],3.5 µM
same,kcat,[16],10 s⁻¹
same,Km,[17],220 µM
same,kcat,[17],3 s⁻¹
same,Km,[18],20 µM
same,kcat,[18],8 s⁻¹
same,Km,[19],80 µM
same,kcat,[19],35 s⁻¹
same,Km,[20],20 µM
same,kcat,[20],4 s⁻¹
same,kcat,[21],< 0.01 s⁻¹

# — ChEMBL document CHEMBL1255480, “Characterization of DIM-1, an integron-encoded metallo-beta-lactamase from a Pseudomonas stutzeri clinical isolate in the Netherlands” (2010)
